± gives the expanded uncertainty stated by the source.
Test: xn = mol fraction of the nth substance listed
Conditions: Liquid, Vibrating tube method, x2 = 0

c1ccccc1 [benzene] + CCCCCCCC
mass density [kg/m3]
Conditions	298.15 K	308.15 K	318.15 K	328.15 K
100 kPa	873.5 ± 0.2	862.9 ± 0.2	852.3 ± 0.2	841.5 ± 0.2
2130 kPa	875.1 ± 0.2	864.7 ± 0.2	854.2 ± 0.2	843.6 ± 0.2
4150 kPa	876.7 ± 0.2	866.4 ± 0.2	856.1 ± 0.2	845.6 ± 0.2
6180 kPa	878.4 ± 0.2	868.2 ± 0.2	857.9 ± 0.2	847.5 ± 0.2
8210 kPa	879.9 ± 0.2	869.9 ± 0.2	859.7 ± 0.2	849.5 ± 0.3
10230 kPa	881.5 ± 0.2	871.6 ± 0.3	861.5 ± 0.3	851.3 ± 0.3
11250 kPa	882.3 ± 0.2	872.4 ± 0.3	862.4 ± 0.3	852.3 ± 0.3
12260 kPa	883.1 ± 0.3	873.2 ± 0.3	863.2 ± 0.3	853.2 ± 0.3
14290 kPa	884.6 ± 0.3	874.8 ± 0.3	865 ± 0.3	855 ± 0.3
16310 kPa	886.1 ± 0.3	876.4 ± 0.3	866.6 ± 0.3	856.8 ± 0.3
18340 kPa	887.6 ± 0.3	878 ± 0.3	868.3 ± 0.3	858.6 ± 0.3
20370 kPa	889.1 ± 0.3	879.5 ± 0.3	869.9 ± 0.3	860.3 ± 0.3
22390 kPa	890.5 ± 0.3	881.1 ± 0.3	871.6 ± 0.3	862 ± 0.3
24420 kPa	892 ± 0.3	882.6 ± 0.3	873.2 ± 0.3	863.7 ± 0.3
26450 kPa	893.4 ± 0.3	884 ± 0.3	874.7 ± 0.3	865.3 ± 0.3
28470 kPa	894.7 ± 0.3	885.5 ± 0.3	876.2 ± 0.3	866.9 ± 0.3
29490 kPa	895.4 ± 0.3	886.2 ± 0.3	877 ± 0.3	867.8 ± 0.3
30500 kPa	896.1 ± 0.3	886.9 ± 0.3	877.8 ± 0.3	868.6 ± 0.3
32530 kPa	897.5 ± 0.3	888.4 ± 0.3	879.2 ± 0.3	870.1 ± 0.3
34550 kPa	898.8 ± 0.3	889.7 ± 0.3	880.7 ± 0.3	871.7 ± 0.3
36580 kPa	900.1 ± 0.3	891.1 ± 0.3	882.1 ± 0.3	873.1 ± 0.3
38600 kPa	901.4 ± 0.3	892.5 ± 0.3	883.6 ± 0.3	874.7 ± 0.3
39620 kPa	902 ± 0.3	893.2 ± 0.3	884.3 ± 0.3	875.4 ± 0.3

— the NIST ThermoML archive (doi:10.1016/j.jct.2007.11.009)
